According to US7195756B2, “Control of arthropod vectors of parasitic diseases” (Centers for Disease Control and Prevention, priority 2000, dated 2007):

Experiments:
[1] = system: Borrelia burgdorferi; assay: Field trial Mason's Island: spirochete infection of white-footed mice (ear biopsy culture); assay type: in vivo
Method: (§1) A field trial was conducted from April to September, 1999 on Mason's Island, Mystic, Conn. […] Four sites situated in undeveloped natural areas were used as untreated controls.
(§2) Modified Protecta Jr. (Bell Laboratories, Madison, Wis.) mouse bait boxes (FIG. 2) were used in this study. The modifications were as follows: a cotton yarn wick was stapled to the underside of the lid just in front of the feeding area entry; two adsorbent nylon strips were affixed to the outer edges of the food block trays. Two Detex monitoring blocks (Bell Laboratories, Madison, Wis.) were placed in each box, 2–3 ml of fipronil topical formulation was applied to the wick and adsorbent strips with a squirt bottle, and the lid was closed and locked with a set screw prior to placement on properties. A 0.43% w/w formulation of fipronil was used in May and June and this was replaced by a 1% w/w formulation from July through September.
(§3) White-footed mice were live-trapped using 3″×3″×10″ Sherman mouse traps (Sherman Trap Co., Tallahassee, Fla.). Pre-treatment trapping was conducted in April and May and post-treatment trapping from June through September to determine: 1) distribution of mice on individual properties, 2) tick burdens on animals, and 3) spirochete infection rates in mice between treated and untreated plots. Each mouse was anesthetized, ectoparasites were removed, ear tissue was collected for spirochete culture, mice were then bled, weighed, measured, ear-tagged and released at the point of capture. In July and August cloth drags were used to collect host-seeking larval ticks for comparison with results of host-associated tick data.
(§4) Based upon pre-treatment mouse distribution and abundance data, a total of 125 bait boxes were set out on 13 residences. Boxes were spaced approximately 30 feet apart along the interface with maintained landscaping and wood lot or scrub brush. The number of boxes/property ranged from 4 to 20, depending on property size and presence of suitable mouse habitat. Initial treatment with fipronil began on May 17 and at approximate 4-week intervals each box was re-baited with 2 food blocks and the wick and strips were replenished with 2–3 ml of fipronil formulation. A record of relative use by white-footed mice was kept for each box during the trial.
3) Impact of fipronil on the natural transmission cycle of B. burgdorferi—Individual captured mice were tested for infection with B. burgdorferi by culture of ear biopsy tissue in BSK H growth media.

[2] = system: Ixodes scapularis; assay: Field trial Mason's Island: tick burdens on white-footed mice, fipronil-treated bait boxes; assay type: in vivo; settings: for mean number of larvae/mouse: treated area
Method: as §1, §2, §3, §4

[3] = system: I. spinipalpis; assay: Field trial Larimer County, Colorado: ticks on Neotoma mexicana, treated bait boxes; assay type: in vivo, Ixodes spinipalpis; design: I. spinipalpis control level: concentration or dose not given beside the values; settings: for I. spinipalpis control level: tick burdens treated vs untreated rats, FRONT LINE TOP SPOT
Method: A field trial testing fipronil (FRONT LINE TOP SPOT®) on native rodent-associated ticks was conducted in a Rocky Mountains foothills habitat in Larimer County, Colo. Treated and untreated plots consisted of 35 rat dens within 5 hectares each. A mark-release-capture study with Neotoma mexicana began in April, and captured rats were anesthetized and ticks removed, identified and quantified. The principal tick on N. mexicana is I. spinipalpis, a nidicolous, competent vector in enzootic transmission cycles in Colorado, California and Oregon. […] Fipronil was passively applied to rats as they entered and exited modified commercially available bait boxes as described in Example 1. Treated bait boxes were set out in May, left in place, and retreated and rebaited at four-week intervals through August. Collections were made at 1, 4, 8, 12 and 16 weeks post-application. N. mexicana collected in the untreated control area numbered 92 with 150 total captures resulting in 1273 fleas and ticks. In the fipronil area, 110 individual rats were collected with a total of 179 captures resulting in 416 fleas and ticks.

[4] = system: nymphal Ixodes scapularis; assay: Fipronil bioassay: treated laboratory mice challenged with nymphal ticks; assay type: in vivo; settings: for % of nymphs fed to repletion: 20 μl single topical application
Method: Fipronil Bioassay: To better determine the most efficacious concentration of fipronil active ingredient for use in the bait box method of tick control, a trial was conducted using treated and untreated laboratory mice challenged with nymphal Ixodes scapularis. Individual groups of 5 mice were treated with 20 microliters (one drop) of 1%, 0.75%, 0.5% and 0.43% of fipronil topical oil formulation micropipetted between the scapulae. Five mice were used as untreated controls. Individual mice were challenged with 10 nymphs each on days 14, 28 and 42. During tick challenge mice were held over water in a triple barrier/cage system. Ticks that fed to repletion were collected from the water and used as a measurement for acaricidal activity.
4) Fipronil bioassay—A total of 25 mice and 750 nymphal I. scapularis were used in this laboratory trial. The volume of 20 microliters (one average-sized drop) was considered the smallest amount of liquid acaricide that a mouse would apply to itself on a single visit to a bait box.

[5] = recaptured adult white-footed mice following fipronil treatment, chi-square p = 0.01

N#Cc1nn(-c2c(Cl)cc(C(F)(F)F)cc2Cl)c(N)c1[S+]([O-])C(F)(F)F (stereo not drawn) [Fipronil, 5-amino-3-cyano-1-(2,6-dichloro-4-trifluoromethylphenyl)-4-trifluoromethylsulfinylpyrazole]
% of spirochete-infected mice ([1]; Peromyscus leucopus, fipronil area, 164 mice, April-September 1999 (untreated 69%)): 38% | % of properties with infected mice ([1]; fipronil area, 12/13 properties (untreated 100%)): 92% | young mice that became infected ([1]; post-treatment period, 26 young mice (body mass <17 g), fipronil area (untreated 30% of 26)): none | No. of mice + at first capture, remained + ([1]; recaptured adult white-footed mice following fipronil treatment): 18 | No. of mice − at first capture, became + [1, 5]: 4 | No. of mice − at first capture, remained − [1, 5]: 14 | treated properties with host-seeking larvae present (cloth drags) ([2]; July and August, seven of 13 treated properties): 54% | larvae on treated mice ([2]; course of the study, except one engorged larva in August and one larva in September): not present | mean number of larvae/mouse ([2]; August (untreated 9.1)): 0.03 | mean number of larvae/mouse ([2]; July (untreated 4.5)): 0 | live nymphs on mice after fipronil treatment ([2]; white-footed mice, fipronil-treated area, post-treatment June-September, bait boxes 0.43% then 1% w/w): not found | fleas and ticks collected ([3]; fipronil area, 110 rats, 179 captures (untreated: 1273 from 150 captures)): 416 | I. spinipalpis control level ([3]; week 1 post-application): 25% | I. spinipalpis control level ([3]; week 4 post-application): 90% | I. spinipalpis control level ([3]; week 8 post-application): 75% | I. spinipalpis control level ([3]; week 12 post-application): 97% | I. spinipalpis control level ([3]; week 16 post-application): 93% | % of nymphs fed to repletion ([4]; 0.43% (85 μg/mouse), 14 days): 0% | % of nymphs fed to repletion ([4]; 0.43% (85 μg/mouse), 28 days): 16% | % of nymphs fed to repletion ([4]; 0.43% (85 μg/mouse), 42 days): 30% | % of nymphs fed to repletion ([4]; 0.50% (100 μg/mouse), 14 days): 0% | % of nymphs fed to repletion ([4]; 0.50% (100 μg/mouse), 28 days): 8% | % of nymphs fed to repletion ([4]; 0.50% (100 μg/mouse), 42 days): 24% | % of nymphs fed to repletion ([4]; 1.00% (200 μg/mouse), 14 days): 0% | % of nymphs fed to repletion ([4]; 1.00% (200 μg/mouse), 28 days): 0% | % of nymphs fed to repletion ([4]; 1.00% (200 μg/mouse), 42 days): 2% | optimum concentration of fipronil to kill ticks on mice for 30 days after a single exposure ([4]; 20 microliters (=150 micrograms)): 0.75%
